Reference: patent US20260028365A1 (BIOGEN MA INC., priority 2022, published 2026)
Where a name gives a salt, the structure may show the parent alone. Read-outs that look alike come from different tables or passages of the source.

Key:
JH2 domain of human Tyk2 = JH2 domain of human Tyk2 (Homo sapiens (Human), UniProt P29597); assay: JH2 Biochemical Assay (TR-FRET probe displacement); format: binding
Tyk2 = Tyk2 (Homo sapiens (Human), UniProt P29597); assay: pSTAT4 Cell Assay (MSD, NK92 cells); format: cell-based
JAK1 = JAK1 (Homo sapiens (Human), UniProt P23458); assay: pSTAT3 Cell Assay (MSD, TF1 cells); format: cell-based; conditions: MSD
Experimental: The inhibitory potency of compounds of the disclosure against the JAK1 kinase activity on STAT3 was evaluated using an MSD-platform plate-based assay format. TF1 cells natively expressing STAT3 and JAK1 were serum-starved to reduce background phosphorylation levels, then cells were treated with compounds of the disclosure for 1 hour with a 10-point four-fold dilution series starting at 10 μM. Cells were then stimulated with 30 ng/mL interleukin 6 (IL-6) for 15 minutes. Cells were lysed and pSTAT3 levels were quantitated using an MSD plate-based assay with anti-STAT3 antibodies. The data were normalized and the percent activity versus log concentration of compound was fitted with a 4-parameter logistic model to generate IC50 curves.

[1] = TR-FRET probe displacement, JH2 domain of human Tyk2
[2] = TR-FRET probe displacement, JH2 domain

Sequence of JH2 domain of human Tyk2 (P29597 575-876): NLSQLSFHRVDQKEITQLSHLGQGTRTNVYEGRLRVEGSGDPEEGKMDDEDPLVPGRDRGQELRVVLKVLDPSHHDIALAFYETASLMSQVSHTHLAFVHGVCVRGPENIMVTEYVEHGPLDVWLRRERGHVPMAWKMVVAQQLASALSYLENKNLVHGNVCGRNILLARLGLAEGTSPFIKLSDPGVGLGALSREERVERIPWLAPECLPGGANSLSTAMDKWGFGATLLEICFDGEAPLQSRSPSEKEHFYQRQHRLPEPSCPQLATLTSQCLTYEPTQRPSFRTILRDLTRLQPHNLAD
Sequence of Tyk2 (P29597 whole entry): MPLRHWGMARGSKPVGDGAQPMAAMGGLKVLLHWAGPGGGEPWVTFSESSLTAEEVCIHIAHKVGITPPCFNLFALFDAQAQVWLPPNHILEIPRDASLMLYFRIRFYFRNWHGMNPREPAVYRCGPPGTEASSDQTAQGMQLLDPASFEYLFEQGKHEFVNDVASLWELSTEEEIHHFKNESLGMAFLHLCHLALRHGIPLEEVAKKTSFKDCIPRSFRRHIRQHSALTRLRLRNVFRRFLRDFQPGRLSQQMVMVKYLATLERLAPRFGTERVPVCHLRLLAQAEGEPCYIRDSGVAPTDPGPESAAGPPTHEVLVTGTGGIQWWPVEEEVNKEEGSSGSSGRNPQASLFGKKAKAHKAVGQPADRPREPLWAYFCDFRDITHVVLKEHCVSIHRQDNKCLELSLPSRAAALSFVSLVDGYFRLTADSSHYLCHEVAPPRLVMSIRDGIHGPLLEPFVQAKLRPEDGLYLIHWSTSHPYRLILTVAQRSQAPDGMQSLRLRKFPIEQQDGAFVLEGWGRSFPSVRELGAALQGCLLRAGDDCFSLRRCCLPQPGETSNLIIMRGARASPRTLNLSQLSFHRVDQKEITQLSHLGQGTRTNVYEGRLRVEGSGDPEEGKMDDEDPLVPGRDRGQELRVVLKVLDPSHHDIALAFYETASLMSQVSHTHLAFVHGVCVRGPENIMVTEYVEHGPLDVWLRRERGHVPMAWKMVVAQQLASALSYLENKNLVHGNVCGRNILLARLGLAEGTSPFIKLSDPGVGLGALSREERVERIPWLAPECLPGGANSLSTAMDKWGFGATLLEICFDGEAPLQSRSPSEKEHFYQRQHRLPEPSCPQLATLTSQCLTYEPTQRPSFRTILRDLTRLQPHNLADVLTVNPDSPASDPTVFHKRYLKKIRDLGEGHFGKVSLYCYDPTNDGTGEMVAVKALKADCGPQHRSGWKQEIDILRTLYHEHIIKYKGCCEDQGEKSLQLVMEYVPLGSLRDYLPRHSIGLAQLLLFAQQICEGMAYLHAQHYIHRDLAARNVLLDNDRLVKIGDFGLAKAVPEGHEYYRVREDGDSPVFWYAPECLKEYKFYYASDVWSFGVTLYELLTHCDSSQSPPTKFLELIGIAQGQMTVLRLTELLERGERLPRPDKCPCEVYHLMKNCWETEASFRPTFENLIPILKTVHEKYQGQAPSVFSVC
Sequence of JAK1 (P23458 whole entry): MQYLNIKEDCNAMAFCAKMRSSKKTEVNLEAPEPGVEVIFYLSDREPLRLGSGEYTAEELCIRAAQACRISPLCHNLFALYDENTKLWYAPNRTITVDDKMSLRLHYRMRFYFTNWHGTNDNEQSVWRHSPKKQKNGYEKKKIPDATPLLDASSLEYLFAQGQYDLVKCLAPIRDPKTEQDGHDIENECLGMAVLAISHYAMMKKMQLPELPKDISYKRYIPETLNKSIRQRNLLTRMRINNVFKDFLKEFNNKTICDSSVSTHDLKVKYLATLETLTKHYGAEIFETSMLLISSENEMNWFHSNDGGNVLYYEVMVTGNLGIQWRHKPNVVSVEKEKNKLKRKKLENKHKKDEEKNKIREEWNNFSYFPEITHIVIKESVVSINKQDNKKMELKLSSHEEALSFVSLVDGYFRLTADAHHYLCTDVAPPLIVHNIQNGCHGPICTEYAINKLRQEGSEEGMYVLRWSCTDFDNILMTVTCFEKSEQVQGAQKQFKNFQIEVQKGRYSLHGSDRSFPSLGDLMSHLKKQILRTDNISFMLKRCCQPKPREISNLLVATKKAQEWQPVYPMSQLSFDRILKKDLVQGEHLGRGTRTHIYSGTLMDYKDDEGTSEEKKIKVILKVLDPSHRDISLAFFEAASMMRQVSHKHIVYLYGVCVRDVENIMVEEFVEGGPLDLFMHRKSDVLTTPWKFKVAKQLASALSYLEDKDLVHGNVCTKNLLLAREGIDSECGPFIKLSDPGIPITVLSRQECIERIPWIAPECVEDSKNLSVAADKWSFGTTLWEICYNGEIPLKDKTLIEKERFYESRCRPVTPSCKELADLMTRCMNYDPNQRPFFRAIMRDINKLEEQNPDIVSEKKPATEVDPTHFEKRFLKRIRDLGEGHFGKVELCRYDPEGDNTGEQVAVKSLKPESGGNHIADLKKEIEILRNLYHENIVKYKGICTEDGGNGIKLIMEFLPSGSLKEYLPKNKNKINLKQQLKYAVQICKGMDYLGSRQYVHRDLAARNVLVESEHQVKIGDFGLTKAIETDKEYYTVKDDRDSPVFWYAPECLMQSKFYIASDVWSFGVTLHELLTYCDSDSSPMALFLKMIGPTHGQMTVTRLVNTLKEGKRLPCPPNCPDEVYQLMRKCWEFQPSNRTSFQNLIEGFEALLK

In the case of `CC(=O)Nc1cc(Nc2cc(C)nc(C(C)(F)F)n2)c(-c2cccc([C@H]3CN(C)CCO3)n2)cn1` (single isomer, unassigned) [Example 642, (R)-N-(4′-((2-(1,1-difluoroethyl)-6-methylpyrimidin-4-yl)amino)-6-(4-methylmorpholin-2-yl)-[2,3′-bipyridin]-6′-yl)acetamide or (S)-N-(4′-((2-(1,1-difluoroethyl)-6-methylpyrimidin-4-yl)amino)-6-(4-methylmorpholin-2-yl)-[2,3′-bipyridin]-6′-yl)acetamide], the IC50 (JH2 domain of human Tyk2; JH2 domain of human Tyk2, TR-FRET probe displacement) is reported as no more than 10 nM, the IC50 (Tyk2; MSD) is reported as no more than 10 nM and the IC50 (JAK1; IL-6 stimulated) is reported as no less than 1000 nM.
With `CC(=O)Nc1cc(Nc2cc(C)nc(C(C)(F)F)n2)c(C(F)(F)C2CC2)cn1` [Example 153, N-(5-(cyclopropyldifluoromethyl)-4-((2-(1,1-difluoroethyl)-6-methylpyrimidin-4-yl)amino)pyridin-2-yl)acetamide] the IC50 (JH2 domain of human Tyk2; [1]) was no more than 10 nM, the IC50 (Tyk2; MSD) was no more than 10 nM and the IC50 (JAK1; IL-6 stimulation) was no less than 1000 nM.
`COc1ccc(-c2cnc(NC(C)=O)cc2Nc2ccnc(C(C)(F)F)n2)nn1` [Example 214, N-(4-((2-(1,1-difluoroethyl)pyrimidin-4-yl)amino)-5-(6-methoxypyridazin-3-yl)pyridin-2-yl)acetamide trifluoroacetate] gave an IC50 (JH2 domain of human Tyk2; [1]) of no more than 10 nM, an IC50 (Tyk2; MSD) of no more than 10 nM and an IC50 (JAK1; IL-6 stimulation) of no less than 1000 nM.
For `CCc1cc(Nc2cc(NC(C)=O)ncc2-c2ccc(CN(C)C)cn2)nc(C(C)(F)F)n1` [Example 266, N-(4′-((2-(1,1-difluoroethyl)-6-ethylpyrimidin-4-yl)amino)-5-((dimethylamino)methyl)-[2,3′-bipyridin]-6′-yl)acetamide], the IC50 (JH2 domain of human Tyk2; [1]) was no more than 10 nM, the IC50 (Tyk2; MSD) was no more than 10 nM and the IC50 (JAK1; IL-6 stimulation) was 100 to 1000 nM.
`CC(=O)Nc1cc(Nc2cc(C)nc(C(C)(F)F)n2)c(-c2ccc(N3CCN(C)CC3)cn2)cn1` [Example 651, N-(4′-((2-(1,1-difluoroethyl)-6-methylpyrimidin-4-yl)amino)-5-(4-methylpiperazin-1-yl)-[2,3′-bipyridin]-6′-yl)acetamide] was tested, and the IC50 (Tyk2; MSD) was no more than 10 nM and the IC50 (JAK1; IL-6 stimulated) was no less than 1000 nM.
Work on `CC(=O)Nc1cc(Nc2ccnc(C(C)(F)F)n2)c(-c2ccc(N3C[C@@H]4C[C@H]3CO4)nn2)cn1` [Example 876, N-(5-(6-((1S,4S)-2-oxa-5-azabicyclo[2.2.1]heptan-5-yl)pyridazin-3-yl)-4-((2-(1,1-difluoroethyl)pyrimidin-4-yl)amino)pyridin-2-yl)acetamide] yielded an IC50 (JH2 domain of human Tyk2; [2]) of no more than 10 nM and an IC50 (Tyk2) of no more than 10 nM.
Work on `CC(=O)Nc1cc(Nc2ccnc(C(C)(F)F)n2)c(-c2ccc(N3CC4(CCOC4)C3)nn2)cn1` [Example 877, N-(5-(6-(6-oxa-2-azaspiro[3.4]octan-2-yl)pyridazin-3-yl)-4-((2-(1,1-difluoroethyl)pyrimidin-4-yl)amino)pyridin-2-yl)acetamide] yielded an IC50 (JH2 domain of human Tyk2; [2]) of no more than 10 nM and an IC50 (Tyk2) of no more than 10 nM.
In the case of `CC(=O)Nc1cc(Nc2ccnc(C(C)(F)F)n2)c(-c2ccc(CN3CCCC3)cn2)cn1` [Example 878, N-(4′-((2-(1,1-difluoroethyl)pyrimidin-4-yl)amino)-5-(pyrrolidin-1-ylmethyl)-[2,3′-bipyridin]-6′-yl)acetamide], the IC50 (JH2 domain of human Tyk2; [2]) is reported as no more than 10 nM and the IC50 (Tyk2) is reported as no more than 10 nM.
`COCCN(C)Cc1ccc(-c2cnc(NC(C)=O)cc2Nc2ccnc(C(C)(F)F)n2)nc1` [Example 879, N-(4′-((2-(1,1-difluoroethyl)pyrimidin-4-yl)amino)-5-(((2-methoxyethyl)(methyl)amino)methyl)-[2,3′-bipyridin]-6′-yl)acetamide] showed an IC50 (JH2 domain of human Tyk2; [2]) of no more than 10 nM and an IC50 (Tyk2) of no more than 10 nM.
In the case of `CC(=O)Nc1cc(Nc2ccnc(C(C)(F)F)n2)c(-c2ccc(CN3CCOC[C@H]3C)cn2)cn1` [Example 880, (R)-N-(4′-((2-(1,1-difluoroethyl)pyrimidin-4-yl)amino)-5-((3-methylmorpholino)methyl)-[2,3′-bipyridin]-6′-yl)acetamide], the IC50 (JH2 domain of human Tyk2; [2]) is reported as no more than 10 nM and the IC50 (Tyk2) is reported as no more than 10 nM.
`COC1CCN(Cc2ccc(-c3cnc(NC(C)=O)cc3Nc3ccnc(C(C)(F)F)n3)nc2)C1` (centres unmarked) [Example 881, N-(4′-((2-(1,1-difluoroethyl)pyrimidin-4-yl)amino)-5-((3-methoxypyrrolidin-1-yl)methyl)-[2,3′-bipyridin]-6′-yl)acetamide] was tested, and the IC50 (JH2 domain of human Tyk2; [2]) was no more than 10 nM and the IC50 (Tyk2) was no more than 10 nM.
`COC1(C)CN(Cc2ccc(-c3cnc(NC(C)=O)cc3Nc3ccnc(C(C)(F)F)n3)nc2)C1` [Example 882, N-(4′-((2-(1,1-difluoroethyl)pyrimidin-4-yl)amino)-5-((3-methoxy-3-methylazetidin-1-yl)methyl)-[2,3′-bipyridin]-6′-yl)acetamide] was tested, and the IC50 (JH2 domain of human Tyk2; [2]) was no more than 10 nM and the IC50 (Tyk2) was no more than 10 nM.
Work on `CC(=O)Nc1cc(Nc2ccnc(C(C)(F)F)n2)c(-c2ccc(CNC3CCOCC3)cn2)cn1` [Example 883] yielded an IC50 (JH2 domain of human Tyk2; [2]) of no more than 10 nM and an IC50 (Tyk2) of no more than 10 nM.
With `CC(=O)Nc1cc(Nc2ccnc(C(C)(F)F)n2)c(-c2ccc(CN3C[C@@H]4C[C@H]3CO4)cn2)cn1` [Example 885, N-(5-(((1S,4S)-2-oxa-5-azabicyclo[2.2.1]heptan-5-yl)methyl)-4′-((2-(1,1-difluoroethyl)pyrimidin-4-yl)amino)-[2,3′-bipyridin]-6′-yl)acetamide] the IC50 (JH2 domain of human Tyk2; [2]) was no more than 10 nM and the IC50 (Tyk2) was no more than 10 nM.
In the case of `CC(=O)Nc1cc(Nc2ccnc(C(C)(F)F)n2)c(-c2ccc(CN3C[C@H]4C[C@@H]3CO4)cn2)cn1` [Example 886, N-(5-(((1R,4R)-2-oxa-5-azabicyclo[2.2.1]heptan-5-yl)methyl)-4′-((2-(1,1-difluoroethyl)pyrimidin-4-yl)amino)-[2,3′-bipyridin]-6′-yl)acetamide], the IC50 (JH2 domain of human Tyk2; [2]) is reported as no more than 10 nM and the IC50 (Tyk2) is reported as no more than 10 nM.
Molecule `CC(=O)Nc1cc(Nc2ccnc(C(C)(F)F)n2)c(-c2cnc(N3C[C@H]4C[C@@H](C3)O4)cn2)cn1` [Example 887, N-(5-(5-((1R,5S)-6-oxa-3-azabicyclo[3.1.1]heptan-3-yl)pyrazin-2-yl)-4-((2-(1,1-difluoroethyl)pyrimidin-4-yl)amino)pyridin-2-yl)acetamide] has an IC50 (JH2 domain of human Tyk2; [2]) of no more than 10 nM and an IC50 (Tyk2) of 10 to 100 nM.
Work on `CC(=O)Nc1cc(Nc2ccnc(C(C)(F)F)n2)c(-c2cnc(N3CC4(COC4)C3)cn2)cn1` [Example 888, N-(5-(5-(2-oxa-6-azaspiro[3.3]heptan-6-yl)pyrazin-2-yl)-4-((2-(1,1-difluoroethyl)pyrimidin-4-yl)amino)pyridin-2-yl)acetamide] yielded an IC50 (JH2 domain of human Tyk2; [2]) of no more than 10 nM and an IC50 (Tyk2) of 100 to 1000 nM.
In the case of `CC(=O)Nc1cc(Nc2ccnc(C(C)(F)F)n2)c(-c2ccc(CN3CC4(CCOC4)C3)cn2)cn1` [Example 889, N-(5-((6-oxa-2-azaspiro[3.4]octan-2-yl)methyl)-4′-((2-(1,1-difluoroethyl)pyrimidin-4-yl)amino)-[2,3′-bipyridin]-6′-yl)acetamide], the IC50 (JH2 domain of human Tyk2; [2]) is reported as no more than 10 nM and the IC50 (Tyk2) is reported as no more than 10 nM.
`CC(=O)Nc1cc(Nc2ccnc(C(C)(F)F)n2)c(-c2ccc(N3CCC4(COC4)C3)nn2)cn1` [Example 890, N-(5-(6-(2-oxa-6-azaspiro[3.4]octan-6-yl)pyridazin-3-yl)-4-((2-(1,1-difluoroethyl)pyrimidin-4-yl)amino)pyridin-2-yl)acetamide] showed an IC50 (JH2 domain of human Tyk2; [2]) of no more than 10 nM and an IC50 (Tyk2) of no more than 10 nM.
`CCc1cc(Nc2cc(NC(C)=O)ncc2-c2cnc(CN3CCCC3)cn2)nc(C(C)(F)F)n1` [Example 893, N-(4-((2-(1,1-difluoroethyl)-6-ethylpyrimidin-4-yl)amino)-5-(5-(pyrrolidin-1-ylmethyl)pyrazin-2-yl)pyridin-2-yl)acetamide] was tested, and the IC50 (JH2 domain of human Tyk2; [2]) was no more than 10 nM and the IC50 (Tyk2) was no more than 10 nM.
For `CCc1cc(Nc2cc(NC(C)=O)ncc2-c2cnc(CN3C[C@@H]4C[C@H]3CO4)cn2)nc(C(C)(F)F)n1` [Example 894, N-(5-(5-(((1S,4S)-2-oxa-5-azabicyclo[2.2.1]heptan-5-yl)methyl)pyrazin-2-yl)-4-((2-(1,1-difluoroethyl)-6-ethylpyrimidin-4-yl)amino)pyridin-2-yl)acetamide], the IC50 (JH2 domain of human Tyk2; [2]) was no more than 10 nM and the IC50 (Tyk2) was no more than 10 nM.
`CCc1cc(Nc2cc(NC(C)=O)ncc2-c2cnc(CN(C)C)cn2)nc(C(C)(F)F)n1` [Example 895, N-(4-((2-(1,1-difluoroethyl)-6-ethylpyrimidin-4-yl)amino)-5-(5-((dimethylamino)methyl)pyrazin-2-yl)pyridin-2-yl)acetamide] showed an IC50 (JH2 domain of human Tyk2; [2]) of no more than 10 nM and an IC50 (Tyk2) of no more than 10 nM.
Work on `COC(C)(C)c1cnc(-c2cnc(NC(C)=O)cc2Nc2ccnc(C(C)(F)F)n2)cn1` [Example 896, N-(4-((2-(1,1-difluoroethyl)pyrimidin-4-yl)amino)-5-(5-(2-methoxypropan-2-yl)pyrazin-2-yl)pyridin-2-yl)acetamide] yielded an IC50 (JH2 domain of human Tyk2; [2]) of no more than 10 nM and an IC50 (Tyk2) of 10 to 100 nM.
In the case of `CCc1cc(Nc2cc(NC(C)=O)ncc2-c2cnc(C3COCCO3)cn2)nc(C(C)(F)F)n1` (centres unmarked) [Example 898, N-(5-(5-(1,4-dioxan-2-yl)pyrazin-2-yl)-4-((2-(1,1-difluoroethyl)-6-ethylpyrimidin-4-yl)amino)pyridin-2-yl)acetamide], the IC50 (JH2 domain of human Tyk2; [2]) is reported as no more than 10 nM and the IC50 (Tyk2) is reported as no more than 10 nM.
In the case of `CCc1cc(Nc2cc(NC(C)=O)ncc2-c2cnc(CN3C[C@H]4C[C@@H](C3)O4)cn2)nc(C(C)(F)F)n1` [Example 900, N-(5-(5-(((1R,5S)-6-oxa-3-azabicyclo[3.1.1]heptan-3-yl)methyl)pyrazin-2-yl)-4-((2-(1,1-difluoroethyl)-6-ethylpyrimidin-4-yl)amino)pyridin-2-yl)acetamide], the IC50 (JH2 domain of human Tyk2; [2]) is reported as no more than 10 nM and the IC50 (Tyk2) is reported as no more than 10 nM.
`CCc1cc(Nc2cc(NC(=O)NC)ncc2-c2cnccn2)nc(C(C)(F)F)n1` [Example 919, 1-(4-((2-(1,1-difluoroethyl)-6-ethylpyrimidin-4-yl)amino)-5-(pyrazin-2-yl)pyridin-2-yl)-3-methylurea] was tested, and the IC50 (JH2 domain of human Tyk2; [2]) was no more than 10 nM and the IC50 (Tyk2) was 10 to 100 nM.
